Our source for the GI50 and TGI values is PubChem BioAssay (NCI).

Test systems include HCT-15 colon; MDA-MB-231 breast; NCI-H226 lung; OVCAR-3 ovarian; OVCAR-5 ovarian; OVCAR-8 ovarian; SNB-19 CNS; SNB-75 CNS; SR leukemia; SW-620 colon.
Common to all, as to experiment: DTP human tumour cell line panel, 48 h

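All cell lines were grown in 96-well plates and treated with compound for 48 hours. GI50: concentration for 50% inhibition of growth. Definition used: TGI = concentration required for complete inhibition of growth.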 Bounds are passed on as bounds.

What is called GI50 is the concentration that inhibits growth by half. For orientation: TGI means the concentration at which net growth stops. Read a low TGI as more potent growth arrest. In the case of `CCC(C)[C@H](NC(=O)Nc1cc(C(F)(F)F)cc(C(F)(F)F)c1)C(=O)N[C@@H](Cc1cn(C)cn1)C(=O)OC` (stereo not given in full), the GI50 in the test with HCT-15 colon is 1.4 µM; with MDA-MB-231 breast, 0.619 µM; with NCI-H226 lung, 0.571 µM; in the test with OVCAR-3 ovarian, 0.621 µM; with OVCAR-5 ovarian, 1.32 µM; in the test on OVCAR-8 ovarian, 0.634 µM. For the same compound, the GI50 is 0.672 µM in the test on SNB-19 CNS, 0.924 µM in the test with SNB-75 CNS, 0.801 µM with SR leukemia and 0.69 µM in the test with SW-620 colon. The TGI was determined as 2.21 µM in the test on HCT-15 colon; 1.12 µM in the test with MDA-MB-231 breast; 1.29 µM with NCI-H226 lung; 1.14 µM in the test with OVCAR-3 ovarian; 1.83 µM with OVCAR-5 ovarian; 1.33 µM in the test on OVCAR-8 ovarian. Also, the TGI stood at 1.52 µM in the test with SNB-19 CNS, 1.82 µM with SNB-75 CNS, 2.08 µM in the test on SR leukemia and 1.53 µM in the test on SW-620 colon.

As to `COc1ccc(Cc2coc3ccccc3c2=O)cc1OC`, the TGI with HCT-15 colon, in the test on MDA-MB-231 breast, in the test with NCI-H226 lung, with OVCAR-3 ovarian, in the test with OVCAR-5 ovarian and in the test on OVCAR-8 ovarian was > 100 µM throughout. The TGI in the test on SNB-19 CNS, in the test on SNB-75 CNS, with SR leukemia and in the test with SW-620 colon was > 100 µM each time.

Regarding `O=S(=O)(NNc1ccccc1)c1ccccc1`, the TGI was > 100 µM with HCT-15 colon; 17.5 µM in the test with MDA-MB-231 breast; 18.5 µM with NCI-H226 lung; 58.7 µM in the test with OVCAR-3 ovarian; > 100 µM with OVCAR-5 ovarian; > 100 µM with OVCAR-8 ovarian. The concentration for total growth inhibition (TGI) is > 100 µM in the test with SNB-19 CNS, > 100 µM in the test with SNB-75 CNS, 53.1 µM in the test on SR leukemia and > 100 µM in the test on SW-620 colon.

As for `NC(=O)c1cc([N+](=O)[O-])c(Cl)c([N+](=O)[O-])c1Cl`, the GI50 was 0.458 µM in the test with HCT-15 colon; 1.79 µM with MDA-MB-231 breast; 1.79 µM in the test with NCI-H226 lung; 1.14 µM in the test on OVCAR-3 ovarian; 2.3 µM in the test with OVCAR-5 ovarian; 1.26 µM with OVCAR-8 ovarian. Moreover, the GI50 is 2.29 µM with SNB-19 CNS, 1.77 µM in the test on SNB-75 CNS, 0.516 µM in the test on SR leukemia and 0.291 µM in the test with SW-620 colon. Further, the TGI in the test with HCT-15 colon stood at 3.25 µM; with MDA-MB-231 breast, 3.39 µM; in the test on NCI-H226 lung, 3.36 µM; in the test on OVCAR-3 ovarian, 2.35 µM; with OVCAR-5 ovarian, 4.59 µM; in the test with OVCAR-8 ovarian, 2.56 µM. Besides, the total growth inhibition concentration (TGI) in the test on SNB-19 CNS is 5.93 µM; with SNB-75 CNS it was 3.69 µM; in the test on SR leukemia it was 4.8 µM; in the test with SW-620 colon, 1.07 µM.

With `CC1(C)CNc2cc(NC(=O)c3cccnc3NCc3ccncc3)ccc21`, the GI50 was 22.2 µM in the test on HCT-15 colon; 29.2 µM in the test on MDA-MB-231 breast; 11 µM in the test with NCI-H226 lung; 21.9 µM in the test with OVCAR-3 ovarian; 50.9 µM in the test with OVCAR-5 ovarian; 33.3 µM with OVCAR-8 ovarian. In addition, the GI50 with SNB-19 CNS was 48.4 µM; in the test on SNB-75 CNS, 1.87 µM; with SR leukemia, 26.1 µM; in the test with SW-620 colon it was 48.2 µM. In addition, the TGI in the test with HCT-15 colon is > 87.7 µM; in the test with MDA-MB-231 breast, > 100 µM; in the test on NCI-H226 lung it was 46.1 µM; in the test with OVCAR-3 ovarian, > 77.5 µM; in the test on OVCAR-5 ovarian it was > 100 µM; in the test on OVCAR-8 ovarian, > 100 µM. Also, the concentration for total growth inhibition (TGI) in the test with SNB-19 CNS, in the test on SNB-75 CNS, in the test with SR leukemia and in the test with SW-620 colon was > 100 µM in each case.

On to `COc1ccc2c(c1)nc(C(=O)c1ccco1)c(C(F)(F)F)[n+]2[O-]`, for which the GI50 with HCT-15 colon, in the test with MDA-MB-231 breast, in the test with NCI-H226 lung, with OVCAR-3 ovarian, with OVCAR-5 ovarian and with OVCAR-8 ovarian was > 100 µM throughout. Further, the GI50 is > 100 µM with SNB-19 CNS, 51.4 µM in the test with SNB-75 CNS, > 100 µM in the test with SR leukemia and > 100 µM with SW-620 colon. Further, the TGI in the test on HCT-15 colon, in the test with MDA-MB-231 breast, with NCI-H226 lung, in the test with OVCAR-3 ovarian, with OVCAR-5 ovarian and in the test with OVCAR-8 ovarian was > 100 µM throughout. For the same compound, the TGI in the test with SNB-19 CNS, in the test on SNB-75 CNS, in the test with SR leukemia and in the test with SW-620 colon was > 100 µM each time.

On to `CC1=C(c2ccccc2)C(O)(c2ccccc2)C(C)C1=O` (stereo not given), for which the GI50 with HCT-15 colon is 31.4 µM; in the test on MDA-MB-231 breast, 14 µM; in the test on NCI-H226 lung it was 33.4 µM; in the test on OVCAR-3 ovarian, 16.5 µM; in the test on OVCAR-5 ovarian, 53.1 µM; in the test on OVCAR-8 ovarian, 48 µM. In addition, the GI50 with SNB-19 CNS was 35.5 µM; in the test with SNB-75 CNS, 10.7 µM; in the test with SR leukemia, 3.75 µM; in the test with SW-620 colon, 6.18 µM. Further, the concentration for total growth inhibition (TGI) with HCT-15 colon, in the test on MDA-MB-231 breast, in the test on NCI-H226 lung, in the test on OVCAR-3 ovarian, in the test on OVCAR-5 ovarian and with OVCAR-8 ovarian was > 100 µM throughout. Also, the TGI in the test on SNB-19 CNS was > 100 µM; in the test with SNB-75 CNS, 42.8 µM; with SR leukemia, > 100 µM; in the test on SW-620 colon, > 100 µM.

For the compound `CN(C)c1ccc2oc(=O)c3ccccc3c2c1`, the total growth inhibition concentration (TGI) was > 100 µM with HCT-15 colon; 82.9 µM with MDA-MB-231 breast; > 100 µM with NCI-H226 lung; > 100 µM with OVCAR-3 ovarian; > 100 µM with OVCAR-5 ovarian; > 100 µM with OVCAR-8 ovarian. The TGI was 70.2 µM in the test with SNB-19 CNS, 61.8 µM in the test on SNB-75 CNS, > 100 µM with SR leukemia and > 100 µM with SW-620 colon.

For `CCN(CC)CCCNc1cc(OC)cc2nc3cc(Cl)ccc3nc12`, the GI50 is 4.12 µM with HCT-15 colon; 2.71 µM with MDA-MB-231 breast; 1.48 µM in the test with NCI-H226 lung; 2.06 µM with OVCAR-3 ovarian; 3.56 µM with OVCAR-5 ovarian; 0.838 µM with OVCAR-8 ovarian. For the same compound, the GI50 in the test with SNB-19 CNS was 2.77 µM; in the test with SNB-75 CNS it was 1.7 µM; in the test with SR leukemia, 0.633 µM; in the test with SW-620 colon it was 0.779 µM. Further, the total growth inhibition concentration (TGI) in the test with HCT-15 colon is 35.4 µM; in the test on MDA-MB-231 breast, 11.7 µM; in the test on NCI-H226 lung, 3.76 µM; in the test on OVCAR-3 ovarian it was 5.9 µM; in the test with OVCAR-5 ovarian it was 16.3 µM; in the test on OVCAR-8 ovarian it was 10.2 µM. In addition, the total growth inhibition concentration (TGI) in the test on SNB-19 CNS was determined as 11.7 µM; in the test on SNB-75 CNS it was 4.35 µM; in the test on SR leukemia, 18 µM; with SW-620 colon it was 11.2 µM.
